According to ChEMBL document CHEMBL1201862, “PubChem BioAssay data set” (2004):
Active and inactive are the calls of the source. Rule as the data show it, for most assays here: actives have a measured EC50 and inactives only a lower limit.

Tests used:
[1] = cytotoxicity toward NIH3T3 fibroblasts, dose response, counter-screen, cell-based, ATP luminescence, mouse fibroblasts (AID 2010); format: functional;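 also: cells exposed to compound for about 90 hours before reading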
[2] = inhibitors of intracellular T. cruzi replication, confirmation, NIH3T3 host cells, beta-gal luminescence (AID 2044); format: functional, cell-based;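 also: intracellular parasites grown in NIH/3T3 mouse fibroblasts as host cells; luminescent beta-galactosidase reporter signal from transgenic T. cruzi replicating inside host cells; inhibitors lower the luminescence signal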
Cytochrome P450 1A2 = target: T1, Cytochrome P450 1A2 (Homo sapiens, UniProt P05177);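 also: PubChem cytochrome P450 panel assay, CYP1A2 panel member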
T1 sequence (P05177 whole entry): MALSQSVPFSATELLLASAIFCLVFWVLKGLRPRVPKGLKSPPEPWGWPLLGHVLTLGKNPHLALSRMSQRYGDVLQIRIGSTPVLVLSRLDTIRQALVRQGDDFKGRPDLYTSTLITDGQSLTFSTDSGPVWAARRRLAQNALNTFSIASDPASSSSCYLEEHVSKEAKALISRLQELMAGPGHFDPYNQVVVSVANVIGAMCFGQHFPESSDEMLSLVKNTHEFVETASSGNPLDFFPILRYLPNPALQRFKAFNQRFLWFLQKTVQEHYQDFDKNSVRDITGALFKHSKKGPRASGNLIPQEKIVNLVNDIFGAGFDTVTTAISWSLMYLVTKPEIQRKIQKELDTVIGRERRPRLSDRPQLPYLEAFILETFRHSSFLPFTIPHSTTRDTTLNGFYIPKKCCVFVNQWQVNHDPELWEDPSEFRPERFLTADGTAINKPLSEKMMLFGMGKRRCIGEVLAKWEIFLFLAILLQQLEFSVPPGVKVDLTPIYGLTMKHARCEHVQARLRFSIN

Protein RecA = target: T2, Protein RecA (Mycobacterium tuberculosis, UniProt P9WHJ3); experiment: Fluorescence Cell-Free Homogeneous Dose Retest to Identify Inhibitors of RecA-Intein Splicing Activity. [Related pubchem assays (depositor defined):AID2097, AID2223, AID489010, AID492950]; format: functional
T2 sequence (P9WHJ3 whole entry): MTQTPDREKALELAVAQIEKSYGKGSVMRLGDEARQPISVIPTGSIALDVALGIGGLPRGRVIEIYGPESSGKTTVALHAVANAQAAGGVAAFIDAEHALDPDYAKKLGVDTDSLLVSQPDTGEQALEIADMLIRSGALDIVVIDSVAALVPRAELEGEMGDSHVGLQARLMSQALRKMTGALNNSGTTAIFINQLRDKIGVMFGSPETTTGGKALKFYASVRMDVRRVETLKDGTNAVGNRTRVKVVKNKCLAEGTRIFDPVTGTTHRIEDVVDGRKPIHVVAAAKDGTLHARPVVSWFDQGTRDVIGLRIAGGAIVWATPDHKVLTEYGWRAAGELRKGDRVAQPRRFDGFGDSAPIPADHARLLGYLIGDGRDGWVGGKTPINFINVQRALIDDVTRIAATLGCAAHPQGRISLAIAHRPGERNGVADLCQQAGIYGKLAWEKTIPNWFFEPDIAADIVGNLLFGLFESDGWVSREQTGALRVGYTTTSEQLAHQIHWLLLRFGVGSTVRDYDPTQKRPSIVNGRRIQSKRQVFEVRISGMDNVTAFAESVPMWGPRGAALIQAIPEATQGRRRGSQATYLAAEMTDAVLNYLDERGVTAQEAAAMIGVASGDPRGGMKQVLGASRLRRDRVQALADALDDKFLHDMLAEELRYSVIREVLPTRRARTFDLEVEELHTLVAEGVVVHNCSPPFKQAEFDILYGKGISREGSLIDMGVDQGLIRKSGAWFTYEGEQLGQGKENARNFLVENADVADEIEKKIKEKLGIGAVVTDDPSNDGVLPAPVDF

[3] = target: T3, Replicative DNA helicase DnaB (Mycobacterium tuberculosis, UniProt P9WMR3); experiment: DnaB intein splicing inhibitors, dose response, biochemical, cell-free fluorescence (AID 449749); format: functional
T3 sequence (P9WMR3 whole entry): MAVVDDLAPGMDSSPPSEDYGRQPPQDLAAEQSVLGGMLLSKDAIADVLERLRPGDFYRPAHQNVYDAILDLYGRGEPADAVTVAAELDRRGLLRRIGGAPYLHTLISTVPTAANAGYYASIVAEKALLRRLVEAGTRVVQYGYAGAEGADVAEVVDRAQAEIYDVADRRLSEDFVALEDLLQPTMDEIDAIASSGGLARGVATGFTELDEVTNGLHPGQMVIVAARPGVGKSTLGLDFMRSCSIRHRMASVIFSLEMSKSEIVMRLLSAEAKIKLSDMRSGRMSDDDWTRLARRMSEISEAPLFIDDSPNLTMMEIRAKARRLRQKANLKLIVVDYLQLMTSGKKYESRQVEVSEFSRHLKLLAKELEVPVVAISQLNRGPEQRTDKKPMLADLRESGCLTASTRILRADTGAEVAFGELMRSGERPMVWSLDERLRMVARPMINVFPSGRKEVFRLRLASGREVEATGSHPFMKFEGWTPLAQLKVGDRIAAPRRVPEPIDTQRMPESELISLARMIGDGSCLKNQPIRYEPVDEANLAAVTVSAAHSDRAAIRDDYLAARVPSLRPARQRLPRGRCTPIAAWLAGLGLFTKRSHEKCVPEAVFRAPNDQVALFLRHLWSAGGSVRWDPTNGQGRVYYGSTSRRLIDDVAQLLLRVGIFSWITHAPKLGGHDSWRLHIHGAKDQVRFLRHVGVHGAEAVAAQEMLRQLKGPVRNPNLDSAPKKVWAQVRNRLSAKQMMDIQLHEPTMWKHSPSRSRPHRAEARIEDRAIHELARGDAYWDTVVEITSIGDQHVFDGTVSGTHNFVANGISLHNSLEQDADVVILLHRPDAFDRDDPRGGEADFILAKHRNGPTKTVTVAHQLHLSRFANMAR

[4] = HEp-2 cell cytotoxicity, dose response, cytotoxicity control for RSV inhibitor project, HTS (AID 2410); format: functional; details: human respiratory syncytial virus
Streptococcus = experiment: Group A Streptococcus viability loss, dose response, counter-screen for streptokinase expression inhibitor project, luminescence, BacTiterGlo (AID 1915); format: functional, organism-based;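 also: potency for reduction of bacterial viability or growth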
[5] = system: Streptococcus sp. 'group A'; experiment: growth inhibition of control SK(-) GAS strain, dose response, counter-screen for streptokinase expression inhibitor project, luminescence, kanamycin, BacTiterGlo, confirmation (AID 1900); format: functional, organism-based

## Cc1ccc(NP(=O)(c2ccc(N(C)C)cc2NC(=O)c2cccs2)N2CCOCC2)cc1Cl (stereo unspecified)
[1]
  EC50: > 30 µM (not active)
[2]
  EC50: 1.9 µM (active)

## O=C(COC(=O)c1c2c(nc3ccccc13)/C(=C\c1cccs1)CCC2)Nc1ccccc1Cl
[1]
  EC50: > 60 µM (not active)
[2]
  EC50: 1.73 µM (active)

## COc1ccc(-n2c(=O)c(-c3cn(C)c4ccccc34)nc3cnc(N4CCOCC4)nc32)cc1
Cytochrome P450 1A2
  AC50: 31.6 µM (inconclusive)

## O=C(C1=C[C@H](c2ccc(Br)cc2)C[C@H](OCCCCO)O1)N1CCN(Cc2ccccc2)CC1
[1]
  EC50: > 60 µM (not active)
[2]
  EC50: 0.874 µM (active)

## C[C@@H](C(=O)NCc1ccccn1)[C@@H]1C[C@@]1(C)[C@@H](NC(=O)OCc1ccccc1)c1ccccc1
Cytochrome P450 1A2
  AC50: 20 µM (inconclusive)

## O=S(=O)(c1ccccc1)N1CCC[C@@]2(CCN(c3cccc(-c4ccccc4)c3)C2)C1
Cytochrome P450 1A2
  AC50: 15.8 µM (inconclusive)

## O=C(NC1CCCCCC1)c1cccnc1S
[1]
  EC50: > 60 µM (inconclusive)
[2]
  EC50: 8.39 µM (active)

## Clc1ccc(N2CCCCCC2)nn1
Cytochrome P450 1A2
  AC50: 15.8 µM (inconclusive)

## N#C/C(=C/c1ccncc1)c1nc2ccccc2s1
Protein RecA
  EC50: 1.67 µM (active)
[3]
  AC50: > 120 µM (inactive)

## CCOC(=O)c1ccc(-n2ccnc2)c(NC(=O)c2cccc(Br)c2)c1
[1]
  EC50: > 60 µM (not active)
[2]
  EC50: 0.281 µM (active)

## Cc1nn(C)cc1CN1CCCC(C(=O)c2ccc(-c3ccccc3)cc2)C1 (stereo unspecified)
[1]
  EC50: > 60 µM (not active)
[2]
  EC50: 0.123 µM (active)

## Cc1sc(NC(=O)CSC2=NCCS2)nc1-c1ccccc1
Protein RecA
  EC50: 4.25 µM (active)
[3]
  AC50: 12.7 µM (active)

## COc1ccc(Cl)cc1N=C(S)NCCC(c1ccccc1)c1ccccc1
[1]
  EC50: > 60 µM (not active)
[2]
  EC50: 1.44 µM (active)

## CCOC(=O)c1[nH]c2ccc(OC)cc2c1C(SCC(=O)O)c1ccc(C(F)(F)F)cc1 (stereo unspecified)
[4]
  CC50: 21.1 µM (active)

## N#CC1=C(N)C(C#N)(C#N)[C@H](c2c(F)cccc2F)[C@H]2CC3(CC=C12)OCCO3
Protein RecA
  EC50: 22.2 µM (active)
[3]
  AC50: > 380 µM (inactive)

## Cc1noc(C)c1-c1cncnc1Nc1ccccc1
Cytochrome P450 1A2
  AC50: 25.1 µM (inconclusive)

## Cc1ccc(CNC(=O)CCC2CCCN(Cc3ccc4cccc(F)c4n3)C2)o1 (stereo unspecified)
[1]
  EC50: > 60 µM (not active)
[2]
  EC50: 0.791 µM (active)

## COC(=O)C1=NN(C(C)=O)C2(CC(=O)N(c3cc(C)cc(C)c3)C2=O)C1 (stereo unspecified)
Protein RecA
  EC50: > 380 µM (inactive)
[3]
  AC50: > 380 µM (inactive)

## Cc1ccc(N2CCN(C(=O)C3CCCN(c4ncnc5c4nc4n5CCCCC4)C3)CC2)c(C)c1 (stereo unspecified)
[4]
  CC50: 9.35 µM (active)

## N#CC1=C(N)Oc2[nH]nc(-c3cccs3)c2C1c1ccco1 (stereo unspecified)
Protein RecA
  EC50: 7.2 µM (active)
[3]
  AC50: 8.22 µM (active)

## Cc1nc(-c2ccccn2)nc(SCC(=O)c2ccccc2)c1Cl
Streptococcus
  EC50: 11.4 µM (active)
[5]
  EC50: 3.92 µM (active)

## COc1ccc(C)cc1NC(=O)CN1CCN(S(=O)(=O)c2ccc(C(C)C)cc2)CC1
[1]
  EC50: > 30 µM (not active)
[2]
  EC50: 1.79 µM (active)

## Cc1nc2ccccc2c2c1C(=O)N(Cc1cccnc1)C2=O
Protein RecA
  EC50: 1.02 µM (active)
[3]
  AC50: 32.8 µM (active)

## CCCOc1ccc(C(=O)NNC(=S)NC(=O)c2cc(-c3ccccc3)nc3ccccc23)cc1
Cytochrome P450 1A2
  AC50: 17.8 µM (inconclusive)

## CS(=O)(=O)N1CCC(Oc2ccccc2C(=O)N2CCCCC2CO)CC1 (stereo unspecified)
Protein RecA
  EC50: > 380 µM (inactive)
[3]
  AC50: > 380 µM (inactive)

## O=[N+]([O-])c1ccc(S(=O)(=O)N2CCN(c3ccnc4cc(Cl)ccc34)CC2)cc1
[1]
  EC50: > 60 µM (not active)
[2]
  EC50: 0.581 µM (active)

## C=C(C)COc1ccc(-c2nc(N)nc(C(F)(F)F)c2-c2ccc(OC)cc2)c(O)c1
[1]
  EC50: > 60 µM (not active)
[2]
  EC50: 2 µM (active)

## Cc1c(C(=O)N2CCc3ccccc3C2)sc2nc(-c3ccccc3)cn12
[4]
  CC50: 30.3 µM (active)

## COc1ccc(-c2ccc(-c3noc(-c4ccccc4)n3)c(OC)n2)cc1
[4]
  CC50: 36.4 µM (active)

## CC(C)c1ccccc1OCC(O)CN1CCN(S(=O)(=O)c2ccc([N+](=O)[O-])cc2)CC1 (stereo unspecified)
[1]
  EC50: > 60 µM (not active)
[2]
  EC50: 0.409 µM (active)

## CCn1c2ccccc2c2cc(NC(=O)c3ccc(Br)o3)ccc21
[4]
  CC50: 27.8 µM (active)

## COc1ccc(NC(=O)c2cccc(N3C(=O)C4C5C=CC(C5)C4C3=O)c2)cc1Cl (stereo unspecified)
Protein RecA
  EC50: 18.5 µM (active)
[3]
  AC50: > 380 µM (inactive)

## CC(C)(C)c1ccc(C(=O)Cn2cnnc2C#N)cc1
Protein RecA
  EC50: 20 µM (active)
[3]
  AC50: 48.9 µM (active)

## COc1ccc(C2C(C#N)=C(N)Oc3c2c(C)nn3-c2ccccc2)cc1Cn1nc(C)c([N+](=O)[O-])c1C (stereo unspecified)
Protein RecA
  EC50: 10.5 µM (active)
[3]
  AC50: 2.95 µM (active)

## COCc1n[nH]c2c1C(c1cccc(OC)c1)C(C#N)=C(N)O2 (stereo unspecified)
Protein RecA
  EC50: 27 µM (active)
[3]
  AC50: 40 µM (active)

## Clc1ccccc1-c1ncc2ccccn12
[1]
  EC50: > 60 µM (not active)
[2]
  EC50: 2.45 µM (active)

## Cc1onc(-c2ccc(Cl)cc2Cl)c1-c1csc(N/N=C/c2ccccc2Cl)n1
[1]
  EC50: 13.9 µM (active)
[2]
  EC50: 2.08 µM (active)

## O=C(N/N=C/c1nn(-c2ccccc2)cc1-c1ccc(Cl)cc1)c1ccncc1
[4]
  CC50: 10.1 µM (active)

## COc1cc(/C=N/NC(=O)c2nnn(-c3nonc3N)c2C(C)C)ccc1OCc1ccccc1
[4]
  CC50: 14 µM (active)

## C/C(CC(=O)Nc1cc(C)ccn1)=N\NC(=O)c1ccc(C)cc1
Protein RecA
  EC50: 8.13 µM (active)
[3]
  AC50: 24.4 µM (active)

## CC(=O)/N=c1\sc2c3ccccc3ccc2n1C
[1]
  EC50: > 30 µM (not active)
[2]
  EC50: 0.643 µM (active)

## c1ccc2sc(C3CCNCC3)nc2c1
[1]
  EC50: > 60 µM (not active)
[2]
  EC50: 2.58 µM (active)

## Cc1c(-c2ccccc2)oc2c(C(=O)OCCN3CCCCC3)cccc2c1=O [FLAVOXATE]
Cytochrome P450 1A2
  AC50: 6.31 µM (inconclusive)

## COc1c(N2CCNC(C)C2)c(F)cc2c(=O)c(C(=O)O)cn(C3CC3)c12 (stereo unspecified) [GATIFLOXACIN]
Streptococcus
  EC50: 1.09 µM (active)
[5]
  EC50: 0.66 µM (active)

## CC(C)=CCc1cc([C@@H]2CC(=O)c3ccc(O)c(CC=C(C)C)c3O2)ccc1O [GLABROL]
Streptococcus
  EC50: 5.43 µM (active)
[5]
  EC50: 6.4 µM (active)
